The term melting point denotes the temperature, or range, at which the solid turns liquid.

Structures are written as SMILES.

We go through 42 compounds from patent US7067520B2, “Preventive or therapeutic medicines for diabetes containing fused-heterocyclic compounds or their salts” (Ishihara Sangyo Kaisha, Ltd., priority 2000, dated 2006).

For one series, the system named is L6 cells. Kind of series: Glucose uptake test by L6 cells. Format: cell-based. The following applies: Rattus norvegicus, 1 hour, 2-deoxy-[3H]-glucose uptake, control (MEM solvent alone) = 100%, read-out: Ratio activity (%); for activity at 10 µg/mL: treatment concentration 10 μg/ml; for activity at 100 µg/mL: treatment concentration 100 μg/ml. The protocol: Glucose Uptake Test by L6 Cells
Each of compounds under test was applied to L6 cells (rat cells originally derived from skeletal muscles) by the following method to measure the stimulating effect on glucose uptake. Namely, L6 cells were suspended in α-minimum essential medium (hereinafter referred to simply as MEM) containing 10% fetal bovine serum (hereinafter referred to simply as FBS), and inoculated into a 96-well plastic plate in an amount of 5×10^4 cells/well and cultivated in an incubator (5% carbon dioxide gas, 37° C.) until the cells grew all over the well. Then, the culture medium was switched to MEM solution containing 2% BS, followed by cultivation further for from 7 to 10 ays (the culture medium was exchanged every three days) to differentiate the cells into skeletal muscle cells. Then, the culture medium was replaced with MEM solution without FBS, followed by cultivation for three hours, and then the compound under test prepared to a treatment concentration (diluted with MEM solution without FBS) was reacted with the skeletal muscle cells at 37° C. for 1 hour. The cells were washed with Krebs-Henseleit-Ringer buffer solution (hereinafter referred to simply as KHR buffer solution), and 2-deoxy-[^3H]-glucose was added to the cells in the KHR buffer solution, followed by treatment at 37° C. for 10 minutes. The treatment solution was removed, the cells were washed with the KHR buffer solution, then the cells were dissolved in a 1N sodium hydroxide solution in an appropriate amount, and the [^3H] radio activity was measured by means of a liquid scintillation counter (cpm) The percentage of the glucose uptake was represented by the percentage of radio activity when the compound under test was applied, taking the radio activity of the control (the MEM solvent alone was applied) as 100%. Each of the compounds as identified in Table 27 was used for treatment at a concentration of each of 10 μg/ml and 100 μg/ml to examine the stimulating effect on glucose uptake.

In turn, `CSc1nc2ccnn2c(NCc2ccccc2)c1C#N` [Compound No. 2, 7-benzylamino-5-methylthiopyrazolo[1,5-a]pyrimidine-6-carbonitrile] yielded a melting point of 165 °C. In the series with L6 cells, the activity at 10 µg/mL is greater than 115% and the activity at 100 µg/mL is greater than 115%.

Turning to `CCOC(=O)c1c(SC)nc2ccnn2c1NCc1ccncc1` [compound 221], the melting point is 123 °C. In the series with L6 cells, the activity at 10 µg/mL is greater than 115% and the activity at 100 µg/mL is greater than 115%.

Compound `CCNc1c(C#N)c(SC)nc2ccnn12` [compound 15] displayed a melting point of 133 °C. Also, the activity at 100 µg/mL in the series on L6 cells is greater than 115%.

For the compound `CSc1nc2ccnn2c(Nc2ccccc2Cl)c1C#N` [compound 163], the melting point lay in the range of 201 to 202 °C. For the same compound, in the series with L6 cells, the activity at 10 µg/mL is greater than 115%.

In turn, `CCOC(=O)c1c(SC)nc2ccnn2c1Nc1cccc(C#N)c1` [compound 223] gave a melting point of 156 to 157 °C. In the series with L6 cells, the activity at 10 µg/mL is greater than 115% and the activity at 100 µg/mL is greater than 115%.

As for `CSc1nc2ccnn2c(Nc2cccc([N+](=O)[O-])c2)c1C#N` [compound 218], the melting point was in the range of 180 to 182 °C. Moreover, in the series on L6 cells, the activity at 10 µg/mL was greater than 115% and the activity at 100 µg/mL is greater than 115%.

Take `N#Cc1c(SC2CCCC2)nc2ccnn2c1NCc1ccncc1` [compound 105]: the melting point lay within 153.4 to 155.4 °C. Also, the activity at 10 µg/mL with L6 cells is greater than 115%.

For the compound `CCSc1nc2ccnn2c(NCc2ccncc2)c1C#N` [compound 68], the melting point is 196 to 196.4 °C. For the same compound, in the series with L6 cells, the activity at 10 µg/mL is greater than 115% and the activity at 100 µg/mL was greater than 115%.

Consider `N#Cc1c(SCc2ccccc2)nc2ccnn2c1NCc1ccncc1` [compound 71], for which the melting point was 187.8 to 189.2 °C (dec.). For the same compound, in the series with L6 cells, the activity at 10 µg/mL was greater than 115% and the activity at 100 µg/mL is greater than 115%.

`CSc1nc2ccnn2c(NCC2CCCCO2)c1C#N` (centres unmarked) [compound 11] yielded a melting point of 121 to 122 °C. Further, the activity at 10 µg/mL in the series on L6 cells is greater than 115%.

For `CCOC(=O)c1c(SC)nc2ccnn2c1NCc1ccccc1` [compound 222], the melting point was 114 to 115 °C. Also, the activity at 10 µg/mL in the series on L6 cells was greater than 115%.

The compound `CSc1nc2cc(-c3ccccc3)nn2c(NCc2ccccc2)c1C#N` [compound 46] had a melting point of 172 °C. Moreover, in the series with L6 cells, the activity at 100 µg/mL was greater than 115%.

As to `COc1nc2ccnn2c(NCC2OCCO2)c1C#N` [compound 136], the melting point is 148.3 to 149.7 °C. Moreover, in the series with L6 cells, the activity at 10 µg/mL is greater than 115% and the activity at 100 µg/mL was greater than 115%.

For `CSc1nc2ccnn2c(NCCc2ccncc2)c1C#N` [compound 215], the melting point is 184 to 185 °C. For the same compound, the activity at 10 µg/mL with L6 cells is greater than 115%.

`CSc1nc2ccnn2c(NOCc2ccccc2)c1C#N` [compound 172] registered a melting point of 177 to 178 °C. Moreover, in the series with L6 cells, the activity at 10 µg/mL is greater than 115% and the activity at 100 µg/mL is greater than 115%.

`CSc1nc2cc(C)nn2c(Nc2cccc(C)c2)c1C#N` [compound 191]: the melting point lay in the range of 174 to 176 °C. Besides, the activity at 10 µg/mL with L6 cells is greater than 115%.

Regarding `CCOCNc1c(C#N)c(SC)nc2ccnn12` [compound 9], the melting point was 132 to 133 °C. Moreover, in the series on L6 cells, the activity at 10 µg/mL is greater than 115% and the activity at 100 µg/mL is greater than 115%.

The compound `CCOC(=O)c1c(SC)nc2ccnn2c1Nc1cccc([N+](=O)[O-])c1` [compound 225] showed a melting point of 166 to 168 °C. Moreover, the activity at 10 µg/mL in the series with L6 cells was greater than 115%.

Compound `C#CCNc1nc(SC)nc2ccnn12` [compound 64] registered a melting point of 175 °C. In the series on L6 cells, the activity at 10 µg/mL was greater than 115%.

As to `CSc1nc2ccnn2c(NCCCn2ccnc2)c1C#N` [compound 83], the melting point lay within 144 to 146 °C. In the series with L6 cells, the activity at 100 µg/mL was greater than 115%.

In the case of `COCSc1nc2ccnn2c(NCc2ccncc2)c1C#N` [compound 108], the melting point was 164 to 165.5 °C (dec.). Besides, the activity at 100 µg/mL in the series on L6 cells was greater than 115%.

Regarding `CSc1nc2cc(C)nn2c(NOCc2ccccc2)c1C#N` [compound 190], the melting point lay within 155 to 156 °C. The activity at 100 µg/mL with L6 cells was greater than 115%.

On to `C#CCNc1c(C#N)c(C)nc2ccnn12` [compound 22], for which the melting point stood at 169 °C. Besides, in the series with L6 cells, the activity at 10 µg/mL is greater than 115% and the activity at 100 µg/mL is greater than 115%.

The compound `CSc1nc2ccnn2c(Nc2ccccc2C)c1C#N` [compound 203] yielded a melting point of 192 to 194 °C. Moreover, the activity at 10 µg/mL in the series with L6 cells is greater than 115%.

`CCOCSc1nc2ccnn2c(NCc2ccncc2)c1C#N` [compound 118] had a melting point of 160 to 161.6 °C. In addition, in the series with L6 cells, the activity at 10 µg/mL was greater than 115% and the activity at 100 µg/mL was greater than 115%.

`COC(=O)c1c(SC)nc2ccnn2c1NCc1ccccc1` [compound 121]: the melting point was 158.5 to 160.5 °C. Further, in the series with L6 cells, the activity at 100 µg/mL was greater than 115%.

Consider `C=CCONc1c(C#N)c(SC)nc2ccnn12` [compound 174], for which the melting point is 129 to 130 °C. Besides, the activity at 100 µg/mL with L6 cells was greater than 115%.

With `CCOC(=O)c1c(SC)nc2ccnn2c1Nc1ccc(C#N)cc1` [compound 224], the melting point came to 178 °C. For the same compound, in the series with L6 cells, the activity at 10 µg/mL is greater than 115%.

`CSc1nc2ccnn2c(Nc2cc(C)ns2)c1C#N` [compound 177] gave a melting point of 175 to 176 °C. For the same compound, in the series with L6 cells, the activity at 100 µg/mL was greater than 115%.

Consider `Cc1nc2ccnn2c(NCCc2ccccc2)c1C#N` [compound 27], for which the melting point turned out to be 143 °C. For the same compound, the activity at 100 µg/mL in the series on L6 cells is greater than 115%.

The compound `CSc1nc2ccnn2c(Nc2ccc(Cl)cc2)c1C#N` [compound 161] yielded a melting point of 275 to 276 °C. Besides, in the series on L6 cells, the activity at 10 µg/mL is greater than 115%.

In turn, `C#CCOc1c(C#N)c(SC)nc2ccnn12` [compound 53] displayed a melting point of 183 °C. In the series on L6 cells, the activity at 100 µg/mL is greater than 115%.

Compound `CNc1c(C#N)c(SC)nc2ccnn12` [compound 14] yielded a melting point of 216 °C. The activity at 100 µg/mL with L6 cells was greater than 115%.

In turn, `CSc1nc2ccnn2c(Nc2ccccc2)c1C#N` [compound 80] registered a melting point of 195 to 196 °C. Besides, the activity at 10 µg/mL with L6 cells is greater than 115%.

On to `CSc1nc2ccnn2c(Nc2ccc(C#N)cc2)c1C#N` [compound 168], for which the melting point fell in the range of 280 to 281 °C. Also, in the series on L6 cells, the activity at 10 µg/mL is greater than 115% and the activity at 100 µg/mL is greater than 115%.

Compound `CSc1nc2ccnn2c(Nc2ccc(C)cc2)c1C#N` [compound 164] returned a melting point of 201 to 202 °C. Also, the activity at 10 µg/mL with L6 cells was greater than 115%.

Regarding `C#CCNc1c(S(=O)(=O)c2ccccc2)c(SC)nc2ccnn12` [compound 60], the melting point is 162 to 163 °C. Besides, the activity at 10 µg/mL in the series with L6 cells is greater than 115%.

On to `CSc1nc2ccnn2c(NCc2cccnc2)c1C#N` [compound 4], for which the melting point was determined as 192 °C. Also, in the series on L6 cells, the activity at 100 µg/mL is greater than 115%.

Consider `CSc1nc2ccnn2c(N(C)C)c1C#N` [compound 17], for which the melting point turned out to be 144 °C. For the same compound, the activity at 100 µg/mL in the series on L6 cells was greater than 115%.

In the case of `CCOC(=O)c1c(SC)nc2ccnn2c1Nc1ccc([N+](=O)[O-])cc1` [compound 226], the melting point was determined as 170 °C. In the series on L6 cells, the activity at 10 µg/mL is greater than 115% and the activity at 100 µg/mL was greater than 115%.

In turn, `CSc1nc2ccnn2c(Nc2ccc3c(c2)OCO3)c1C#N` [compound 211] had a melting point of 158 to 159 °C. Further, in the series with L6 cells, the activity at 10 µg/mL was greater than 115% and the activity at 100 µg/mL is greater than 115%.

The compound `CSc1nc2ccnn2c(NO)c1C#N` [compound 205] gave a melting point of 214 to 218 °C. For the same compound, in the series on L6 cells, the activity at 10 µg/mL was greater than 115%.
